Laboratory results taken from patent US20230348362A1, “LIPID COMPOUNDS AND LIPID NANOPARTICLE COMPOSITIONS” (Suzhou Abogen Biosciences Co., Ltd., priority 2021, published 2023).

Legend:
[1] = Encapsulation efficiency of lipid nanoparticles, Quant-it Ribogreen RNA assay; type: physicochemical; settings: LNP of lipid/DSPC/cholesterol/PEG-lipid 50:10:38.5:1.5 encapsulating hEPO mRNA
Description: (§1) Briefly, a cationic lipid provided herein, DSPC, cholesterol, and PEG-lipid were solubilized in ethanol at a molar ratio of 50:10:38.5:1.5, and mRNA were diluted in 10 to 50 mM citrate buffer, pH=4. The LNPs were prepared at a total lipid to mRNA weight ratio of approximately 10:1 to 30:1 by mixing the ethanolic lipid solution with the aqueous mRNA solution at a volume ratio of 1:3 using a microfluidic apparatus, total flow rate ranging from 9-30 mL/min. Ethanol were thereby removed and replaced by DPBS using dialysis. Finally, the lipid nanoparticles were filtered through a […] sterile filter.
(§2) Lipid nanoparticle size were determined by dynamic light scattering using a Malvern Zetasizer Nano ZS (Malvern UK) using a […] backscatter detection mode. The encapsulation efficiency of lipid nanoparticles were determined using a Quant-it Ribogreen RNA quantification assay kit (Thermo Fisher Scientific, UK) according to the manufacturer's instructions.

[2] = Lipid nanoparticle size and polydispersity by dynamic light scattering; type: physicochemical; settings: LNP of lipid/DSPC/cholesterol/PEG-lipid 50:10:38.5:1.5 encapsulating hEPO mRNA
Description: as §1, §2

Row | SMILES | Encapsulation Efficiency [1] [%] | polydispersity [2] | size (nm) [2] [nm]
1 | CCCCCCCCCCCOC(=O)CCCCCN(CCN(CCO)CCCCCC(=O)OCC(CCCCCCC)CCCCCCC)C1CCCCC1 [Compound 22] | 95.5 | 0.047 | 87.7
2 | CCCCCCCCCCCOC(=O)CCCCCN(CC=C(C)C)CCN(CCCCCC(=O)OCC(CCCCCCCC)CCCCCCCC)C1CCC(O)CC1 (stereo not drawn) [Compound 125] | 92.89 | 0.035 | 90.98
3 | CCCCCCCCCCCOC(=O)CCCCCN(CCN(CCO)CCCCCC(=O)NCC(CCCCCCCC)CCCCCCCC)C1CCCCC1 [Compound 44] | 92.6 | 0.081 | 77.48
4 | CCCCCCCCCC(=O)OCC(CCCCN(CCO)CCN(CCCCC(COC(=O)CCCCCCCCC)COC(=O)CCCCCCCCC)C1CCC1)COC(=O)CCCCCCCCC [Compound 167] | 91.97 | 0.128 | 69.47
5 | CCCCCCCCC(CCCCCC)COC(=O)CCCCCN(C)CCN(CCO)CCCCC(COC(=O)CCCCCCC)COC(=O)CCCCCCC (stereo not drawn) [Compound 156] | 89.69 | 0.190 | 73.36
6 | CCCCCCCCCCCOC(=O)CCCCCN(CCN(CCO)CCCCCNP(=O)(OCCCCCCCCC)OCCCCCCCCC)C1CCCCC1 [Compound 100] | 85.49 | 0.085 | 93.16
7 | CCCCCCCCCCCCCCCCOC(=O)CCCCCN(CCN(CCO)CCCCCC(=O)OCC(CCCCCCCC)CCCCCCCC)C1CCCCC1 [Compound 104] | 92.43 | 0.044 | 66.62
8 | CCCCCCCCCCCOC(=O)CCCCCN(CCN(CCO)CCCCCC(=O)N(CCCCCCCC)CCCCCCCC)C1CCCCC1 [Compound 90] | 82.56 | 0.030 | 101.70
9 | CCCCCCCCCCCC(=O)OCCCCCN(CCN(CCO)CCCCCNC(=O)CC(CCCCCCCC)CCCCCCCC)C1CCCCC1 [Compound 59] | 95.1 | 0.063 | 70.3
10 | CCCCCCCCCCCCCCOCC(CN(CCN(CCO)CCCCCC(=O)OCC(CCCCCCCC)CCCCCCCC)C1CCC1)OCCCCCCCC (stereo not drawn) [Compound 20] | 95.8 | 0.015 | 74.98
11 | CCCCCCCCC(CCCCCC)COC(=O)CCCCCN(CCO)CCN(CCCCC(COC(=O)CCCCCCC)COC(=O)CCCCCCC)C1CCCCC1 (stereo not drawn) [Compound 139] | 87.81 | 0.076 | 59.97

Now from value to compound:

Row | Encapsulation Efficiency [1] [%] | polydispersity [2] | size (nm) [2] [nm] | SMILES
12 | 93.9 | 0.181 | 55.12 | CCCCCCCCC(CCCCCC)COC(=O)CCCCCN(CCO)CCN(CCCCCC(=O)OCC(CCCCCC)CCCCCCCC)C1CC1 (stereo not drawn) [Compound 9]
13 | 88.38 | 0.07 | 110.8 | CCCCCCCCC(CCCCCC)CNC(=O)CCN(CCO)CCN(CCCCC(COC(=O)CCCCCCC)COC(=O)CCCCCCC)C1CCCCCCC1 (stereo not drawn) [Compound 213]
14 | 87.31 | 0.048 | 122.1 | CCCCCCCCC(CCCCCC)CNC(=O)CCN(CCO)CCN(CCCCC(COC(=O)CCCCCCC)COC(=O)CCCCCCC)C1CCCCCC1 (stereo not drawn) [Compound 212]
15 | 92.14 | 0.067 | 67.63 | CCCCCCCCCCCOC(=O)CCCCCN(CCN(CCO)CCCCCC(=O)OCC(CCCCCCCC)CCCCCCCC)C1CCC1 [Compound 106]
16 | 88.86 | 0.096 | 60.99 | CCCCCCCCC(CCCCCC)C(=O)OCCCCCCN(CCO)CCN(CCCCCCOC(=O)C(CCCCCC)CCCCCCCC)C1CCC1 (stereo not drawn) [Compound 69]
17 | 92.56 | 0.080 | 71.00 | CCCCCCCCC(CCCCCCCC)COC(=O)CCCCCN(CCO)Cc1ccc(CN(CCCCCC(=O)OCC(CCCCCCCC)CCCCCCCC)C2CCC2)cc1 [Compound 88]
